Data on 36 compounds can be found in ChEMBL document CHEMBL4483862, “Open-source discovery of chemical leads for next-generation chemoprotective antimalarials” (2018).

The term IC50 denotes the concentration at which inhibition is half-maximal. The IC90 is the concentration at which the effect reaches the 90% level.

This assay deals with Plasmodium berghei. Nature of the assay: Luciferase/luciferin-expressing antifolate-resistant parasites were used to infect a culture of HepG2 cells that were pre-incubated with compounds. Infected hepatocytes emit light due to the luciferase reaction. Assay results are presented as the percent inhibition of light emission compared to control. […]. The format is functional. As to conditions: sporozoite; for IC90: read-out: LUCIFERASE INFECTION ASSAY - IC90.

Where [1] appears, read: read-out: LUCIFERASE INFECTION ASSAY - IC50.

Each structure is given as a SMILES string.

For the compound `CCC(CO)NC(=S)Nc1cc(C(F)(F)F)cc(C(F)(F)F)c1` (configuration not stated), the IC90 is greater than 9.16 µM. Besides, the half-maximal inhibitory concentration (IC50) under setting [1] is greater than 9.16 µM.

As for `CCc1ccc(N(C(=O)C2CCN(C(=O)C(C)(C)C)CC2)c2nc3ccccc3s2)cc1`, the 90% effect concentration (IC90) is greater than 10 µM. Besides, the IC50 under setting [1] was greater than 10 µM.

Take `O=C(Nc1ccc(OC(F)(F)F)cc1)Nc1nnc(C(F)(F)F)s1`: the IC90 turned out to be 0.377 µM. Further, under “HEPG2TOX_HILL_SLOPE 2.11, HEPG2TOX_R_SQUARED 0.979, PBLUC_HILL_SLOPE 11.8, PBLUC_R_SQUARED 0.539, read-out: LUCIFERASE INFECTION ASSAY - IC50”, the concentration for half-maximal inhibition (IC50) was found to be 0.313 µM.

As for `CCOc1cc2c(cc1/C=C/C(=O)c1ccc(C)o1)OC(C)C2` (configuration not stated), the 90% effect concentration (IC90) is greater than 10 µM. Moreover, the 50% inhibitory concentration (IC50) (PBLUC_HILL_SLOPE 2.56, PBLUC_R_SQUARED 0.238, read-out: LUCIFERASE INFECTION ASSAY - IC50) was found to be 9.29 µM.

For the compound `O=C(N/N=C/c1c(-c2ccccc2)nc2sc3c(n12)CCCC3)c1ccc(Br)cc1`, the 90% effect concentration (IC90) was 8.36 µM. Further, the IC50 (FFLUC_HILL_SLOPE 0.19, FFLUC_R_SQUARED 0.758, PBLUC_HILL_SLOPE 1.28, PBLUC_R_SQUARED 0.573, read-out: LUCIFERASE INFECTION ASSAY - IC50) amounted to 1.51 µM.

With `Cc1cc(C)cc(C(=O)Nc2nc3ccccc3[nH]2)c1`, the 90% effect concentration (IC90) is greater than 10 µM. Moreover, the IC50 under setting [1] came to 7.33 µM.

`Cc1cccc(CNc2nc3cnc(-c4cccc(Oc5ccccc5)c4)cc3n2C)c1`: the concentration for an effect of 90% (IC90) turned out to be 3.88 µM. The IC50 (FFLUC_HILL_SLOPE 2.46, FFLUC_R_SQUARED 0.608, HEPG2TOX_HILL_SLOPE 16, HEPG2TOX_R_SQUARED 0.341, PBLUC_HILL_SLOPE 8.58, PBLUC_R_SQUARED 0.684, read-out: LUCIFERASE INFECTION ASSAY - IC50) came to 3 µM.

For `c1ccc2c(-n3ccnc3)nc(-c3ccsc3)nc2c1`, the concentration for an effect of 90% (IC90) came to 7.73 µM. For the same compound, where the note is “HEPG2TOX_HILL_SLOPE 9, HEPG2TOX_R_SQUARED 0.711, PBLUC_HILL_SLOPE 3.68, 14.1, PBLUC_R_SQUARED 0.615, 0.129, read-out: LUCIFERASE INFECTION ASSAY - IC50”, the IC50 amounted to 4.26 µM.

For the compound `Cc1cccn2c(C(=O)NC3CCCCC3)c(NC(=O)c3cccc(F)c3)nc12`, the IC90 is greater than 8.37 µM. The IC50 under setting [1] is greater than 8.37 µM.

Take `CCN(CC)S(=O)(=O)c1ccc(N2CCOCC2)c(NC(=O)c2oc3ccccc3c2C)c1`: the concentration for an effect of 90% (IC90) is 9.03 µM. The IC50 (PBLUC_HILL_SLOPE 2.77, PBLUC_R_SQUARED 0.561, read-out: LUCIFERASE INFECTION ASSAY - IC50) came to 4.08 µM.

As to `CCc1cccc2c(C3=NNC(=Nc4ccc(S(=O)(=O)N5CCOCC5)cc4)SC3)c[nH]c12`, the concentration for an effect of 90% (IC90) was greater than 10 µM. Moreover, the concentration for half-maximal inhibition (IC50) (HEPG2TOX_HILL_SLOPE 14.9, HEPG2TOX_R_SQUARED 0.843, PBLUC_HILL_SLOPE 3.05, PBLUC_R_SQUARED 0.104, read-out: LUCIFERASE INFECTION ASSAY - IC50) was 5.65 µM.

In the case of `O=S(=O)(c1ccc(Cl)cc1)c1nc(/C=C/c2ccccc2)oc1NCc1ccco1`, the IC90 came out at 9.82 µM. Moreover, under “PBLUC_HILL_SLOPE 32.9, PBLUC_R_SQUARED 0.0875, read-out: LUCIFERASE INFECTION ASSAY - IC50”, the IC50 came out at 9.18 µM.

As to `CCOC(=O)c1sc(N(Cc2ccccc2)C(=O)CCc2cc(OC)c(OC)c(OC)c2)nc1C`, the 90% effect concentration (IC90) came to 4.11 µM. Further, the half-maximal inhibitory concentration (IC50) (PBLUC_HILL_SLOPE 16, PBLUC_R_SQUARED 0.382, read-out: LUCIFERASE INFECTION ASSAY - IC50) amounted to 3.58 µM.

With `c1ccc2c(-c3cc(Nc4ccc5[nH]ccc5c4)ncn3)cccc2c1`, the IC90 was 4.49 µM. Also, for the setting “HEPG2TOX_HILL_SLOPE 1.68, HEPG2TOX_R_SQUARED 0.859, PBLUC_HILL_SLOPE 1.6, PBLUC_R_SQUARED 0.806, read-out: LUCIFERASE INFECTION ASSAY - IC50”, the 50% inhibitory concentration (IC50) came out at 1.13 µM.

`N=C(N)N/N=C/c1ccc(Cl)cc1Cl`: the IC90 is 5.8 µM. Moreover, under “HEPG2TOX_HILL_SLOPE 3.43, HEPG2TOX_R_SQUARED 0.626, PBLUC_HILL_SLOPE 2.34, PBLUC_R_SQUARED 0.812, read-out: LUCIFERASE INFECTION ASSAY - IC50”, the IC50 worked out at 2.27 µM.

Take `Cc1cc(C)n(-c2nc(-c3ccccc3)cc(N3CCOCC3)n2)n1`: the 90% effect concentration (IC90) turned out to be 6.26 µM. Besides, the IC50 (PBLUC_HILL_SLOPE 5.14, PBLUC_R_SQUARED 0.351, read-out: LUCIFERASE INFECTION ASSAY - IC50) stood at 4.08 µM.

As to `Cc1ccc(NC(=S)N/N=C2\C(=O)Nc3ccc([N+](=O)[O-])cc32)cc1`, the IC90 was greater than 10 µM. The half-maximal inhibitory concentration (IC50) (PBLUC_HILL_SLOPE 14.8, PBLUC_R_SQUARED 0.511, read-out: LUCIFERASE INFECTION ASSAY - IC50) amounted to 8.89 µM.

`O=C1NC(c2ccccc2)=C(c2nc3ccccc3s2)C(c2cccs2)N1` (configuration not stated): the 90% effect concentration (IC90) was greater than 10 µM. Further, for the setting “FFLUC_HILL_SLOPE 4.26, FFLUC_R_SQUARED 0.397, PBLUC_HILL_SLOPE 0.406, PBLUC_R_SQUARED 0.487, read-out: LUCIFERASE INFECTION ASSAY - IC50”, the IC50 came to 3.85 µM.

`COc1ccc(CNC(=O)NC2CCCCCCC2)cn1`: the IC90 is greater than 10 µM. In addition, the concentration for half-maximal inhibition (IC50) under setting [1] is greater than 10 µM.

In the case of `NNc1nn2c(=O)c3c(-c4ccccc4)csc3nc2c2ccccc12`, the concentration for an effect of 90% (IC90) was greater than 10 µM. Further, the 50% inhibitory concentration (IC50) (FFLUC_HILL_SLOPE 12, FFLUC_R_SQUARED 0.305, PBLUC_HILL_SLOPE 10.1, PBLUC_R_SQUARED 0.389, read-out: LUCIFERASE INFECTION ASSAY - IC50) was 8.61 µM.

As to `O=C(COc1ccc2[nH]c3ccccc3c(=O)c2c1)N1CCN(c2ccc(F)cc2)CC1`, the IC90 amounted to 7.49 µM. Moreover, for the setting “PBLUC_HILL_SLOPE 2.14, PBLUC_R_SQUARED 0.725, read-out: LUCIFERASE INFECTION ASSAY - IC50”, the half-inhibitory concentration (IC50) turned out to be 2.68 µM.

`COC(=O)c1cccc(S(=O)(=O)Oc2cc3ccccc3cc2C(=O)Nc2cc(C)ccc2OC)c1`: the IC90 was greater than 10 µM. For the same compound, the 50% inhibitory concentration (IC50) (FFLUC_HILL_SLOPE 26.2, FFLUC_R_SQUARED 0.533, PBLUC_HILL_SLOPE 4.23, PBLUC_R_SQUARED 0.622, read-out: LUCIFERASE INFECTION ASSAY - IC50) amounted to 8.38 µM.

With `CC1CCCC(C)N1C(=O)Nc1cccc(Cl)c1` (configuration not stated), the IC90 was greater than 12.4 µM. The IC50 under setting [1] was greater than 12.4 µM.

On to `COC(=O)c1cc(CNC(=O)c2ccccc2O)ccc1OC`, for which the IC90 is greater than 10 µM. Moreover, the IC50 under setting [1] is greater than 10 µM.

As for `Cc1ccccc1-n1c(SCc2nc3ccccc3c(=O)n2CC#N)nnc1-c1ccc(C(C)(C)C)cc1`, the concentration for an effect of 90% (IC90) is greater than 10 µM. Moreover, the IC50 (FFLUC_HILL_SLOPE 0.956, FFLUC_R_SQUARED 0.529, read-out: LUCIFERASE INFECTION ASSAY - IC50) was greater than 10 µM.

For the compound `CCN1C(=O)N(CCCc2cccnc2)C(=O)C12CCN(Cc1cnc(-c3ccccc3)s1)CC2`, the concentration for an effect of 90% (IC90) was greater than 6.74 µM. The half-inhibitory concentration (IC50) (HEPG2TOX_HILL_SLOPE 2.98, HEPG2TOX_R_SQUARED 0.92, PBLUC_HILL_SLOPE 12.2, PBLUC_R_SQUARED 0.164, read-out: LUCIFERASE INFECTION ASSAY - IC50) stood at 6.3 µM.

With `CCOc1ccc(-c2nc(NC(=O)c3ccc(OC)c(S(=O)(=O)N(C)OC)c3)sc2C)cc1`, the 90% effect concentration (IC90) was greater than 10 µM. Also, the IC50 under setting [1] is greater than 10 µM.

On to `OCc1cccc(-c2ccc3ncc(-c4cccc(Cl)c4)n3n2)c1`, for which the concentration for an effect of 90% (IC90) stood at 2.73 µM. Moreover, the concentration for half-maximal inhibition (IC50) (HEPG2TOX_HILL_SLOPE 1.23, HEPG2TOX_R_SQUARED 0.98, PBLUC_HILL_SLOPE 1.42, PBLUC_R_SQUARED 0.52, read-out: LUCIFERASE INFECTION ASSAY - IC50) turned out to be 0.582 µM.

Consider `O=[N+]([O-])c1ccc(Sc2ccc(Cl)cc2)c(-c2cc[nH]n2)c1`, for which the concentration for an effect of 90% (IC90) was greater than 9.95 µM. Moreover, the 50% inhibitory concentration (IC50) (FFLUC_HILL_SLOPE 2.47, FFLUC_R_SQUARED 0.0888, HEPG2TOX_HILL_SLOPE 0.21, HEPG2TOX_R_SQUARED 0.178, PBLUC_HILL_SLOPE 0.977, PBLUC_R_SQUARED 0.273, read-out: LUCIFERASE INFECTION ASSAY - IC50) was greater than 9.95 µM.

Turning to `C(=N\Nc1nc2ccccc2[nH]1)/c1sc(N2CCCCC2)nc1-c1cccs1`, the IC90 is greater than 10 µM. For the same compound, the IC50 (HEPG2TOX_HILL_SLOPE 5.76, HEPG2TOX_R_SQUARED 0.476, PBLUC_HILL_SLOPE 1.87, PBLUC_R_SQUARED 0.581, read-out: LUCIFERASE INFECTION ASSAY - IC50) came to 6.38 µM.

In the case of `COc1ccc2c(c1)CCCC21NC(=O)N(Cc2cc(=O)n3cc(C)ccc3n2)C1=O` (configuration not stated), the IC90 turned out to be 1.38 µM. The IC50 (PBLUC_HILL_SLOPE 1.52, PBLUC_R_SQUARED 0.761, read-out: LUCIFERASE INFECTION ASSAY - IC50) was 0.324 µM.

On to `Cc1nc(SC(C)C(=O)c2c[nH]c3ccccc23)c2c(=O)n(C)c(=O)n(CC(C)C)c2n1` (configuration not stated), for which the IC90 was greater than 10 µM. Besides, the IC50 (FFLUC_HILL_SLOPE 11.3, FFLUC_R_SQUARED 0.363, PBLUC_HILL_SLOPE 2.42, PBLUC_R_SQUARED 0.455, read-out: LUCIFERASE INFECTION ASSAY - IC50) was found to be 7.35 µM.

For `CCCc1cc(=O)oc2cc(OCC(=O)NNC(=S)NC(=O)c3ccc(Cl)cc3)ccc12`, the IC90 is greater than 6.96 µM. For the same compound, the 50% inhibitory concentration (IC50) under setting [1] was greater than 6.96 µM.

For the compound `CC1CN(c2nc(N)c3c(N)nc4c(c3c2C#N)CC(=O)N4C2CCCC2)CC(C)O1` (configuration not stated), the IC90 is greater than 10 µM. For the same compound, under setting [1], the IC50 was greater than 10 µM.

With `CC(C)CCNCC(O)CON=C1c2ccccc2-c2ccccc21` (configuration not stated), the IC90 is greater than 10 µM. The IC50 under setting [1] is greater than 10 µM.

Consider `Cc1cc(C)c(C(=O)C2CCN(C(=O)c3cccs3)CC2)c(C)c1`, for which the IC90 is greater than 9.66 µM. The IC50 (PBLUC_HILL_SLOPE 1.97, PBLUC_R_SQUARED 0.657, read-out: LUCIFERASE INFECTION ASSAY - IC50) came out at 3.99 µM.
